The target of test [1] is T1, human GLP2 receptor (Homo sapiens, UniProt O95838).
T1 sequence (O95838 1-553): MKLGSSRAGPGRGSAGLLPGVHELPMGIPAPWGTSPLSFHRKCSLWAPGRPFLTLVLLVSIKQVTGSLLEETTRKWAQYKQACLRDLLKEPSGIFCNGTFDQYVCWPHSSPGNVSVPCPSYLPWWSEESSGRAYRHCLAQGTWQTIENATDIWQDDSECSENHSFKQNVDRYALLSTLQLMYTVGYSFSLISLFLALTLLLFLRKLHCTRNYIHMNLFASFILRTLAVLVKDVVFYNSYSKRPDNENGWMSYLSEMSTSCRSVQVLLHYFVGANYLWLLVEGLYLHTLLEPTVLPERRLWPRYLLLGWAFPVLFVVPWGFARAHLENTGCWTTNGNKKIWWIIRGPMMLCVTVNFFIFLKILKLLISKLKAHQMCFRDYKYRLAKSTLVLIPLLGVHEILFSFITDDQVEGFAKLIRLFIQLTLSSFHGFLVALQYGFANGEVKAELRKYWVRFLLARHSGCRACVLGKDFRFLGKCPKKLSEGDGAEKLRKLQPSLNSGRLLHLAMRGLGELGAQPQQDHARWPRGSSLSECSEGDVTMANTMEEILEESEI
Briefly: cAMP accumulation assay (HTRF), functional agonism of human GLP2 receptor in HEK cells.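 For all read-outs here: HEK cells transduced via BacMam to express human GLP2 receptor, agonist-stimulated cAMP measured by HTRF after 45 min at 37 °C in HBSS with 0.5 mM IBMX.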 Particulars: for Emax: HEK293, read-out: Human GLP-2R agonist cAMP Emax. A general note: Changes in cAMP serve as a functional read-out for many G protein-coupled receptors.

For test [2], the target named is T2, human GLP1 receptor (Homo sapiens, UniProt P43220).
T2 construct: expressed in transfected cells; host or cells: HEK cells, BacMam virus transduction
Description: cAMP accumulation assay (HTRF), functional agonism of human GLP1 receptor in HEK cells. The test is classed as cell-based. Particulars: HEK cells, human GLP1 receptor BacMam, 45 min 37° C.; for Emax: HEK293, read-out: Human GLP-1R agonist cAMP Emax; for EC50: read-out: Human GLP-1R agonist cAMP pEC50 (converted).

Starred links: 1 amine or outer side, 2 acyl side, 3 side chain; linkers in the order of their positions; H or OH if unused. Non-standard residues stand in square brackets, D forms with d. Residues, ends and D or L forms follow the SMILES beside them. Groups on a side chain read outwards from the residue. ξ: configuration not given here. *: point of attachment. Malonyl(2,2-Me2,histaminyl) = CC(C)(C(=O)NCCc1cnc[nH]1)C(=O)*; Ala(1H-tetrazol-5-yl) = N[C@@H](Cc1nnn[nH]1)C(=O)O; C18 diacid = O=C(O)CCCCCCCCCCCCCCCCC(=O)*; γGlu = O=C(O)[C@H](CCC(=O)[*:2])N[*:1]; ξαMePhe(2-F) = CC(N)(Cc1ccccc1F)C(=O)O; αMeL = CC(C)C[C@](C)(N)C(=O)O; Nle = CCCC[C@H](N)C(=O)O; AEEA = NCCOCCOCC(=O)O; Aib = CC(C)(N)C(=O)O; Alloc = C=CCOC(=O)*

Broadly, the Emax is the maximal effect, on the per cent scale that the assay sets.

T2 sequence (P43220 24-463): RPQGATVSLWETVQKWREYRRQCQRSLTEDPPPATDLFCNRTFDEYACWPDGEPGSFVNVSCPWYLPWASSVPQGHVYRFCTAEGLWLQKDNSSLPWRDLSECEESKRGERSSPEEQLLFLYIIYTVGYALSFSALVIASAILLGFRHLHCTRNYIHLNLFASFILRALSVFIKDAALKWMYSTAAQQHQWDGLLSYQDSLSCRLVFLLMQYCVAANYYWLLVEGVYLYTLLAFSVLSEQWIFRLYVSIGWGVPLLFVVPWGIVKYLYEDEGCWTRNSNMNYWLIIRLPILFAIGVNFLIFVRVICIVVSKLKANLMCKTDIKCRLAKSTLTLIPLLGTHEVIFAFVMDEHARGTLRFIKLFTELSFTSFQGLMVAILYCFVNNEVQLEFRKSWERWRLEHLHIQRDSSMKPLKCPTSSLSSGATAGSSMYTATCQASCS

As to `C=CCOC(=O)NCCCC[C@H](NC(=O)[C@H](CC(C)C)NC(=O)[C@H](CC(=O)O)NC(=O)[C@H](CC(C)C)NC(=O)[C@@H](NC(=O)[C@@H](NC(=O)[C@@H](Cc1ccccc1)NC(=O)[C@H](CCCC)NC(=O)[C@H](CCC(=O)O)NC(=O)[C@H](CC(=O)O)NC(=O)[C@H](CO)NC(=O)C(C)(Cc1ccccc1F)NC(=O)[C@H](CO)NC(=O)CNC(=O)[C@H](CC(=O)O)NC(=O)C(C)(C)C(=O)NCCc1c[nH]cn1)[C@@H](C)O)[C@@H](C)CC)C(=O)N[C@@H](C)C(=O)N[C@@H](C)C(=O)N[C@@H](CCCCN)C(=O)N[C@@H](CC(=O)O)C(=O)N[C@@H](Cc1ccccc1)C(=O)N[C@H](C(=O)N[C@@H](CC(N)=O)C(=O)N[C@@H](Cc1c[nH]c2ccccc12)C(=O)N[C@@H](CC(C)C)C(=O)N[C@H](C(=O)N[C@@H](CCC(N)=O)C(=O)N[C@H](C(=O)N[C@@H](CCCCN)C(=O)N[C@H](C(=O)N[C@H](C(=O)N[C@@H](CC(=O)O)C(N)=O)[C@@H](C)O)[C@@H](C)CC)[C@@H](C)O)[C@@H](C)CC)[C@@H](C)CC` (stereo partly drawn) [Example 4] ({Malonyl(2,2-Me2,histaminyl)}-DGS[ξαMePhe(2-F)]SDE[Nle][dF]TILDLK(Alloc)AAKDFINWLIQTKITD-NH2; C-terminus assumed), the Emax in test [1] worked out at 99.3%; in test [2], 98.1%.
On to `C=CCOC(=O)NCCCC[C@H](NC(=O)[C@H](C)NC(=O)C(C)(C)NC(=O)[C@H](CCCCNC(=O)OCC=C)NC(=O)[C@H](CC(C)C)NC(=O)[C@H](CC(=O)O)NC(=O)[C@H](CC(C)C)NC(=O)C(C)(C)NC(=O)[C@@H](NC(=O)[C@@H](Cc1ccccc1)NC(=O)[C@H](CCCC)NC(=O)[C@H](CCC(=O)O)NC(=O)[C@H](CC(=O)O)NC(=O)[C@H](CO)NC(=O)[C@H](Cc1ccccc1)NC(=O)[C@H](CO)NC(=O)CNC(=O)[C@H](Cc1nn[nH]n1)NC(=O)C(C)(C)C(=O)NCCc1c[nH]cn1)[C@@H](C)O)C(=O)N[C@@H](CC(=O)O)C(=O)N[C@@H](Cc1ccccc1)C(=O)N[C@H](C(=O)N[C@@H](CC(N)=O)C(=O)N[C@@H](Cc1c[nH]c2ccccc12)C(=O)N[C@@H](CC(C)C)C(=O)N[C@H](C(=O)N[C@@H](CCC(N)=O)C(=O)N[C@H](C(=O)N[C@@H](CCCCN)C(=O)N[C@H](C(=O)N[C@H](C(=O)N[C@@H](CC(=O)O)C(N)=O)[C@@H](C)O)[C@@H](C)CC)[C@@H](C)O)[C@@H](C)CC)[C@@H](C)CC` [Example 16] ({Malonyl(2,2-Me2,histaminyl)}-[Ala(1H-tetrazol-5-yl)]GSFSDE[Nle][dF]T[Aib]LDLK(Alloc)[Aib]AK(Alloc)DFINWLIQTKITD-NH2), for which, in test [1], the EC50 was 0.01 nM and the Emax was 102%. In test [2], the Emax is 96% and the EC50 is 15.8 nM.
The matching figures for `CCCC[C@H](NC(=O)[C@H](CCC(=O)O)NC(=O)[C@H](CC(=O)O)NC(=O)[C@H](CO)NC(=O)[C@H](Cc1ccccc1)NC(=O)[C@H](CO)NC(=O)CNC(=O)[C@H](Cc1nn[nH]n1)NC(=O)C(C)(C)C(=O)NCCc1c[nH]cn1)C(=O)N[C@H](Cc1ccccc1)C(=O)N[C@H](C(=O)N[C@H](C(=O)N[C@@H](CC(C)C)C(=O)N[C@@H](CC(=O)O)C(=O)N[C@@H](CC(C)C)C(=O)N[C@@H](CCCCNC(=O)CC[C@H](NC(=O)COCCOCCNC(=O)COCCOCCNC(=O)CCCCCCCCCCCCCCCCC(=O)O)C(=O)O)C(=O)N[C@@H](C)C(=O)N[C@@H](C)C(=O)N[C@@H](CCCCN)C(=O)N[C@@H](CC(=O)O)C(=O)N[C@@H](Cc1ccccc1)C(=O)N[C@H](C(=O)N[C@@H](CC(N)=O)C(=O)N[C@@H](Cc1c[nH]c2ccccc12)C(=O)N[C@@H](CC(C)C)C(=O)N[C@H](C(=O)N[C@@H](CCC(N)=O)C(=O)N[C@H](C(=O)N[C@@H](CCCCN)C(=O)N[C@H](C(=O)N[C@H](C(=O)N[C@@H](CC(=O)O)C(N)=O)[C@@H](C)O)[C@@H](C)CC)[C@@H](C)O)[C@@H](C)CC)[C@@H](C)CC)[C@@H](C)CC)[C@@H](C)O` [Example 22] ({Malonyl(2,2-Me2,histaminyl)}-[Ala(1H-tetrazol-5-yl)]GSFSDE[Nle][dF]TILDLK([γGlu-AEEA-AEEA-C18 diacid])AAKDFINWLIQTKITD-NH2): 0.0158 nM, 101%, 87.6% and 3.16 nM.
Regarding `C=CCOC(=O)NCCCC[C@H](NC(=O)[C@H](CC(C)C)NC(=O)[C@H](CC(=O)O)NC(=O)[C@H](CC(C)C)NC(=O)C(C)(C)NC(=O)[C@@H](NC(=O)[C@@H](Cc1ccccc1)NC(=O)[C@H](CCCC)NC(=O)[C@H](CCC(=O)O)NC(=O)[C@H](CC(=O)O)NC(=O)[C@H](CO)NC(=O)[C@H](Cc1ccccc1)NC(=O)[C@H](CO)NC(=O)[C@@H](C)NC(=O)[C@H](Cc1nn[nH]n1)NC(=O)C(C)(C)C(=O)NCCc1c[nH]cn1)[C@@H](C)O)C(=O)N[C@@H](C)C(=O)N[C@@H](C)C(=O)NC(C)(C)C(=O)N[C@@H](CC(=O)O)C(=O)N[C@@H](Cc1ccccc1)C(=O)N[C@H](C(=O)N[C@@H](CC(N)=O)C(=O)N[C@@H](Cc1c[nH]c2ccccc12)C(=O)N[C@@H](CC(C)C)C(=O)N[C@H](C(=O)N[C@@H](CCC(N)=O)C(=O)N[C@H](C(=O)N[C@@H](CCCCN)C(=O)N[C@H](C(=O)N[C@H](C(=O)N[C@@H](Cc1ccccc1)C(N)=O)[C@@H](C)O)[C@@H](C)CC)[C@@H](C)O)[C@@H](C)CC)[C@@H](C)CC` [Example 7] ({Malonyl(2,2-Me2,histaminyl)}-[Ala(1H-tetrazol-5-yl)][dA]SFSDE[Nle][dF]T[Aib]LDLK(Alloc)AA[Aib]DFINWLIQTKITF-NH2), in test [1], the EC50 is 0.01 nM and the Emax was 102%. In test [2], the Emax was found to be 62.2% and the EC50 is 39.8 nM.
Regarding `C=CCOC(=O)NCCCC[C@H](NC(=O)[C@](C)(CC(C)C)NC(=O)[C@H](CC(=O)O)NC(=O)[C@H](CC(C)C)NC(=O)[C@@H](NC(=O)[C@@H](NC(=O)[C@@H](Cc1ccccc1)NC(=O)[C@H](CCCC)NC(=O)[C@H](CCC(=O)O)NC(=O)[C@H](CC(=O)O)NC(=O)[C@H](CO)NC(=O)[C@H](Cc1ccccc1)NC(=O)[C@H](CO)NC(=O)CNC(=O)[C@H](Cc1nn[nH]n1)NC(=O)C(C)(C)C(=O)NCCc1c[nH]cn1)[C@@H](C)O)[C@@H](C)CC)C(=O)N[C@@H](C)C(=O)N[C@@H](C)C(=O)N[C@@H](CCCCN)C(=O)N[C@@H](CC(=O)O)C(=O)N[C@@H](Cc1ccccc1)C(=O)N[C@H](C(=O)N[C@@H](CC(N)=O)C(=O)N[C@@H](Cc1c[nH]c2ccccc12)C(=O)N[C@@H](CC(C)C)C(=O)N[C@H](C(=O)N[C@@H](CCC(N)=O)C(=O)N[C@H](C(=O)N[C@@H](CCCCN)C(=O)N[C@H](C(=O)N[C@H](C(=O)N[C@@H](CC(=O)O)C(N)=O)[C@@H](C)O)[C@@H](C)CC)[C@@H](C)O)[C@@H](C)CC)[C@@H](C)CC` [Example 19] ({Malonyl(2,2-Me2,histaminyl)}-[Ala(1H-tetrazol-5-yl)]GSFSDE[Nle][dF]TILD[αMeL]K(Alloc)AAKDFINWLIQTKITD-NH2), the figures for the EC50 in test [1] and in test [2] were 0.01 nM and 2.51 nM, respectively. Moreover, the Emax in test [1] stood at 102%; in test [2], 92.7%.

The values are drawn from patent US20230295260A1, “GLP RECEPTOR AGONISTS” (HEPTARES THERAPEUTICS LIMITED, priority 2020, published 2023).
